The target in this experiment is recombinant human GST-Syk (Homo sapiens (Human), UniProt P43405). Kind of experiment: Homogeneous Time-Resolved Fluorescence (HTRF) assay for the recombinant human Syk enzyme. Type of experiment: biochemical. The conditions noted are these: recombinant human GST-Syk 5 pM, ATP 25 μM. Summed up: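 GST-hSyk (5 pM final) preincubated 10 min at room temperature with inhibitor (0.1% DMSO) in 15 mM Tris-HCl pH 7.5, 0.01% Tween 20, 2 mM DTT. Reaction with 250 nM biotinylated peptide, 5 mM Mg, 25 μM ATP for 45 min, room temperature. Quenched with EDTA; Eu-anti-phosphotyrosine/SA-APC HTRF read after 30 min.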
Background: Time-resolved FRET reads energy transfer from a long-lived donor to a nearby acceptor.

Where [1] appears, read: class symbols, read-out: rhSyk activity (IC50).
Setting [2] is: 10-dose titration, read-out: rhSyk (nM) IC50.

What is called IC50 is the concentration at which inhibition is half-maximal.

Where two headings read alike, the source gives them in different places.

On to `Cc1cc(Nc2cc(OC(C)C)ccn2)nc(-c2cnc(C(O)(C3CC3)[C@H]3CC[C@H](C(=O)O)CC3)s2)c1` (single isomer, unassigned) [Example 14-24, trans-4-{cyclopropyl(hydroxy)[5-(4-methyl-6-{[4-(propan-2-yloxy)pyridin-2-yl]amino}pyridin-2-yl)-1,3-thiazol-2-yl]methyl}cyclohexanecarboxylic acid], for which the IC50 under setting [1] was at most 100 nM.

In the case of `COc1ccnc(Nc2cccc(-c3cnc(C(C)(O)[C@H]4CC[C@H](C(=O)O)C(C)(C)C4)s3)n2)c1` (stereo partly drawn) [Example 14-48, (1S,4S)-4-[1-hydroxy-1-(5-{6-[(4-methoxypyridin-2-yl)amino]pyridin-2-yl}-1,3-thiazol-2-yl)ethyl]-2,2-dimethylcyclohexanecarboxylic acid], the IC50 under setting [1] was at most 100 nM.

As for `Cc1cc(Nc2cc(C(F)(F)F)ccn2)nc(-c2cnc(C(C)(O)C3CCC(C(=O)O)C(C)C3)s2)c1` (single isomer, unassigned) [Example 15-1, 4-{1-hydroxy-1-[5-(4-methyl-6-{[4-(trifluoromethyl)pyridin-2-yl]amino}pyridin-2-yl)-1,3-thiazol-2-yl]ethyl}-2-methylcyclohexanecarboxylic acid], under setting [1], the IC50 was at most 100 nM.

Turning to `CCCCOC(=O)[C@H]1CC[C@H]([C@@](C)(O)c2ncc(-c3cc(C)cc(Nc4cc(C)c(F)cn4)n3)s2)CC1` (single isomer, unassigned) [Example 9, Enantiomer 2, butyl trans-4-[1-(5-{6-[(5-fluoro-4-methylpyridine-2-yl)amino]-4-methylpyridine-2-yl}-1,3-thiazol-2-yl)-1-hydroxyethyl]cyclohexanecarboxylate], the IC50 under setting [1] is 100 to 1000 nM.

In the case of `COC(=O)[C@H]1CC[C@H](C(O)c2ncc(-c3cc(C)cc(Nc4cc(C(F)(F)F)ccn4)n3)s2)CC1` (relative stereo) [Example 14-27, methyl trans-4-{hydroxy[5-(4-methyl-6-{[4-(trifluoromethyl)pyridin-2-yl]amino}pyridin-2-yl)-1,3-thiazol-2-yl]methyl}cyclohexanecarboxylate], the IC50 under setting [1] was at most 100 nM.

As to `CCCCOC(=O)[C@H]1CC[C@H](C(C)(O)c2ncc(-c3cc(C)cc(Nc4cc(C5CC5)ccn4)n3)s2)CC1` (relative stereo) [Example 14-6, butyl trans-4-[1-(5-{6-[(4-cyclopropylpyridin-2-yl)amino]-4-methylpyridin-2-yl}-1,3-thiazol-2-yl)-1-hydroxyethyl]cyclohexanecarboxylate], under setting [1], the IC50 lay in the range of 100 to 1000 nM.

For the molecule `Cc1cc(Nc2cc(C(F)(F)F)ccn2)nc(-c2cnc(C(C)(O)[C@H]3CC[C@H](C(=O)O)C(C)(C)C3)s2)c1` (stereo partly drawn) [Example 14-31, (1S,4S)-4-{1-hydroxy-1-[5-(4-methyl-6-{[4-(trifluoromethyl)pyridin-2-yl]amino}pyridin-2-yl)-1,3-thiazol-2-yl]ethyl}-2,2-dimethylcyclohexanecarboxylic acid], the IC50 under setting [1] was at most 100 nM.

On to `Cc1cc(Nc2cc(C(F)(F)F)ccn2)nc(-c2cnc(C(C)(O)C3CCNC3)s2)c1` (stereo not shown) [Example 12, 1-[5-(4-Methyl-6-{[4-(trifluoromethyl)pyridin-2-yl]amino}pyridin-2-yl)-1,3-thiazol-2-yl]-1-(pyrrolidin-3-yl)ethanol], for which, under setting [1], the IC50 was at most 100 nM.

As for `CCCCOC(=O)[C@H]1CC[C@H]([C@@](C)(O)c2ncc(-c3cc(C)cc(Nc4cc(C)c(F)cn4)n3)s2)CC1` (single isomer, unassigned) [Example 9, Enantiomer 1, butyl trans-4-[1-(5-{6-[(5-fluoro-4-methylpyridine-2-yl)amino]-4-methylpyridine-2-yl}-1,3-thiazol-2-yl)-1-hydroxyethyl]cyclohexanecarboxylate], the IC50 runs as follows: under setting [2], 278 nM; under setting [1], 100 to 1000 nM.

With `Cc1cc(Nc2cc(C(F)(F)F)ccn2)nc(-c2cnc(C(C)(O)[C@H]3CC[C@H](C(=O)O)C(C)(C)C3)s2)c1` (stereo partly drawn) [Example 14-32, (1S,4S)-4-{1-hydroxy-1-[5-(4-methyl-6-{[4-(trifluoromethyl)pyridin-2-yl]amino}pyridin-2-yl)-1,3-thiazol-2-yl]ethyl}-2,2-dimethylcyclohexanecarboxylic acid], the IC50 under setting [1] was at most 100 nM.

For the molecule `Cc1cc(Nc2cc(C(F)(F)F)ccn2)nc(-c2cnc(C(C)(O)C3CCC(C(=O)O)C(C)C3)s2)c1` (single isomer, unassigned) [Example 15-11, 4-{1-hydroxy-1-[5-(4-methyl-6-{[4-(trifluoromethyl)pyridin-2-yl]amino}pyridin-2-yl)-1,3-thiazol-2-yl]ethyl}-2-methylcyclohexanecarboxylic acid], the IC50 under setting [1] is at most 100 nM.

As for `CC1(C)C[C@@H](C(C)(O)c2ncc(-c3cccc(Nc4cc(C(F)(F)F)ccn4)n3)s2)CC[C@@H]1C(=O)O` (stereo partly drawn) [Example 14-44, (1S,4S)-4-{1-hydroxy-1-[5-(6-{[4-(trifluoromethyl)pyridin-2-yl]amino}pyridin-2-yl)-1,3-thiazol-2-yl]ethyl}-2,2-dimethylcyclohexanecarboxylic acid], the IC50 under setting [1] was at most 100 nM.

Regarding `Cc1cc(Nc2cc(C(F)(F)F)ccn2)nc(-c2cnc(C(C)(O)C3CCC(C(=O)O)C(C)C3)s2)c1` (single isomer, unassigned) [Example 15-9, 4-{1-hydroxy-1-[5-(4-methyl-6-{[4-(trifluoromethyl)pyridin-2-yl]amino}pyridin-2-yl)-1,3-thiazol-2-yl]ethyl}-2-methylcyclohexanecarboxylic acid], the IC50 under setting [1] was at most 100 nM.

Regarding `CC1(C)C[C@@H](C(C)(O)c2ncc(-c3cccc(Nc4cc(C(F)F)ccn4)n3)s2)CC[C@@H]1C(=O)O` (stereo partly drawn) [Example 14-50, (1S,4S)-4-{1-[5-(6-{[4-(difluoromethyl)pyridin-2-yl]amino}pyridin-2-yl)-1,3-thiazol-2-yl]-1-hydroxyethyl)-2,2-dimethylcyclohexanecarboxylic acid], the IC50 by setting is: under setting [2], 6 nM; under setting [1], at most 100 nM.

For the molecule `Cc1cc(Nc2cc(C(F)F)ccn2)nc(-c2cnc(C(C)(O)[C@H]3CC[C@H](C(=O)O)C(C)(C)C3)s2)c1` (stereo partly drawn) [Example 14-38, (1S,4S)-4-{1-[5-(6-{[4-(difluoromethyl)pyridin-2-yl]amino}-4-methylpyridin-2-yl)-1,3-thiazol-2-yl]-1-hydroxyethyl}-2,2-dimethylcyclohexanecarboxylic acid], under setting [1], the IC50 is at most 100 nM.

As for `Cc1cc(Nc2cc(OC(C)C)ccn2)nc(-c2cnc(C(O)([C@H]3CC[C@H](C(=O)O)CC3)C(F)(F)F)s2)c1` (single isomer, unassigned) [Example 14-25, trans-4-{2,2,2-trifluoro-1-hydroxy-1-[5-(4-methyl-6-{[4-(propan-2-yloxy)pyridin-2-yl]amino}pyridin-2-yl)-1,3-thiazol-2-yl]ethyl}cyclohexanecarboxylic acid], the IC50 under setting [1] is at most 100 nM.

Take `Cc1cc(Nc2cc(C(F)(F)F)ccn2)nc(-c2cnc(C(C)(O)C3CCN(C(N)=O)C3)s2)c1` (stereo not shown) [Example 13, 3-{1-Hydroxy-1-[5-(4-methyl-6-{[4-(trifluoromethyl)pyridin-2-yl]amino}pyridin-2-yl)-1,3-thiazol-2-yl]ethyl}pyrrolidine-1-carboxamide]: the IC50 under setting [1] is at most 100 nM.

With `Cc1cc(Nc2cc(C(F)(F)F)ccn2)nc(-c2cnc(C(C)(O)C3CCC(C(=O)O)C(C)C3)s2)c1` (single isomer, unassigned) [Example 15-5, 4-{1-hydroxy-1-[5-(4-methyl-6-{[4-(trifluoromethyl)pyridin-2-yl]amino}pyridin-2-yl)-1,3-thiazol-2-yl]ethyl}-2-methylcyclohexanecarboxylic acid], the IC50 under setting [1] was at most 100 nM.

Take `Cc1cc(Nc2cc(C(F)(F)F)ccn2)nc(-c2cnc(C(O)[C@H]3CC[C@H](C(=O)O)CC3)s2)c1` (single isomer, unassigned) [Example 14-29, trans-4-{hydroxy[5-(4-methyl-6-{[4-(trifluoromethyl)pyridin-2-yl]amino}pyridin-2-yl)-1,3-thiazol-2-yl]methyl}cyclohexanecarboxylic acid]: the IC50 under setting [1] was at most 100 nM.

Regarding `Cc1cc(Nc2cc(C(F)(F)F)ccn2)nc(-c2cnc(C(C)(O)C3CCC(C(=O)O)C(C)C3)s2)c1` (stereo not shown) [Example 15-16, 4-{1-hydroxy-1-[5-(4-methyl-6-{[4-(trifluoromethyl)pyridin-2-yl]amino}pyridin-2-yl)-1,3-thiazol-2-yl]ethyl}-2-methylcyclohexanecarboxylic acid], under setting [1], the IC50 is at most 100 nM.

For the molecule `COc1ccnc(Nc2cc(C)cc(-c3cnc(C(C)(O)[C@H]4CC[C@H](C(=O)O)C(C)(C)C4)s3)n2)c1` (stereo partly drawn) [Example 14-36, (1S,4S)-4-[1-hydroxy-1-(5-{6-[(4-methoxypyridin-2-yl)amino]-4-methylpyridin-2-yl}-1,3-thiazol-2-yl)ethyl]-2,2-dimethylcyclohexanecarboxylic acid], the IC50 under setting [1] was at most 100 nM.

Consider `CC(O)(c1ncc(-c2cccc(Nc3cc(C(F)(F)F)ccn3)n2)s1)[C@H]1CC[C@H](C(=O)O)CC1` (single isomer, unassigned) [Example 8, trans-4-{(1R or 1S)-1-Hydroxy-1-[5-(6-{[4-(trifluoromethyl)pyridin-2-yl]amino}pyridin-2-yl)-1,3-thiazol-2-yl]ethyl}cyclohexanecarboxylic acid], for which the IC50 under setting [1] was at most 100 nM.

For `Cc1ccnc(Nc2cccc(-c3cnc(C(C)(O)[C@H]4CC[C@H](C(=O)O)CC4)s3)n2)c1` (single isomer, unassigned) [Example 14-40, trans-4-[1-hydroxy-1-(5-{6-[(4-methylpyridin-2-yl)amino]pyridin-2-yl}-1,3-thiazol-2-yl)ethyl]cyclohexanecarboxylic acid], the IC50 under setting [1] was at most 100 nM.
